Biological target: T1, cathepsin B (Homo sapiens, UniProt P07858)
T1 construct: Cathepsin B (human liver; 0.27 U; 7.35×10^−4 mg, Calbiochem); purchased Calbiochem; host or cells: human liver (tissue-derived)
Assay: HPLC enzyme specificity assay of C-SNAF, cathepsin B
Type: biochemical
Settings: 25 μM probe, 0.735 μg/ml enzyme, pH 5.5
Experimental: The specificity of C-SNAF towards other representative cysteine proteases such as caspase-7, caspase-9, cathepsin B, and legumain was examined.
Caspase (human, recombinant from E. coli) assays were performed for caspase-3 (4.9×10^−3 U; 7.35×10^−4 mg, Sigma), −7 (18.3 U; 7.35×10^−4 mg, Calbiochem), and −9 (0.3 U; 7.35×10^−4 mg, Calbiochem). All caspase assays were conducted in caspase buffer with 50 mM HEPES, 100 mM NaCl, 1 mM EDTA, 10 mM TCEP, 10% glycerol, and 0.1% CHAPS at pH 7.4. Cathepsin B (human liver; 0.27 U; 7.35×10^−4 mg, Calbiochem) and Legumain (human, recombinant from mouse myeloma cell line; >250 pmol/min/μg; 7.35×10^−4 mg, R&D Systems) were conducted in reaction buffer with 50 mM sodium acetate, 50 mM NaCl, 0.5 mM EDTA and 10 mM TCEP at pH 5.5. C-SNAF was diluted in the respective enzyme reaction buffer (25 μM, 1 mL) and remained at room temperature for 10 min, to which was then added the respective enzymes. Reactions were performed at 37° C., and monitored by HPLC hourly. The percentage conversion of the reaction was calculated based on the percentage of peak area of C-SNAF-cycl in the HPLC trace at 675 nm UV detection, which indicated the efficacy of enzyme cleavage of C-SNAF.

## CCSSC[C@@H](NC(=O)[C@H](CC(=O)O)NC(=O)[C@@H](NC(=O)[C@H](CCC(=O)O)NC(=O)[C@H](CC(=O)O)NC(C)=O)C(C)C)C(=O)N[C@@H](CCCCNC(=O)CCCCCN1C(=CC=CC=CC2=[N+](CC)c3ccc4c(S(=O)(=O)[O-])cc(S(=O)(=O)O)cc4c3C2(C)C)C(C)(C)c2c1ccc1c(S(=O)(=O)O)cc(S(=O)(=O)O)cc21)C(=O)Nc1ccc2nc(C3=N[C@@H](C(=O)NCCCOc4ccc5nc(C#N)ccc5c4)CS3)sc2c1 [C-SNAF]
  activation by cathepsin B: neither lysosomal cysteine proteases cathepsin B nor legumain could significantly activate

Reference: US9642922B2, “Caspase-triggered nano-aggregation probes and methods of use” (The Board of Trustees of the Leland Stanford Junior …, priority 2013, dated 2017)
